Consider 37 molecules from ChEMBL document CHEMBL3390845, “Development of second generation amidinohydrazones, thio- and semicarbazones as Trypanosoma cruzi-inhibitors bearing benzofuroxan and benzimidazole 1,3-dioxide core scaffolds” (Medchemcomm, 2010).

In one data set the test system is Trypanosoma cruzi. Nature of the data set: Antitrypanosomal activity against epimastigotes of Trypanosoma cruzi Tulahuen 2 assessed as parasite growth inhibition after 5 days. It is filed as functional. The settings on record: Tulahuen 2, 120 h, read-out: ID50 (the source's name).
Data set [1] is described as follows: Hemolytic activity in human RBC assessed as hemoglobin release after 24 hrs by spectrophotometry. The settings on record: for ID50: erythrocyte, 24 h; for HC50 at 24 h: human red blood cells (RBC), read-out: ID50. It is filed as ADME, cell-based, Erythrocyte.
Data set [2] concerns the target Cruzipain (Trypanosoma cruzi) (UniProt P25779). Nature of the data set: Inhibition of Trypanosoma cruzi Cruzipain using Z-Phe-Arg-AMC as substrate at 100 uM at pH 7.3 measured for 10 mins by spectrofluorimetric analysis relative to control.
Data set [3] shares this target. Nature of the data set: Inhibition of Trypanosoma cruzi Cruzipain using Z-Phe-Arg-AMC as substrate measured for 10 mins by spectrofluorimetric analysis relative to control.
The nature of data set [4]: Selectivity index, ratio of ID50 for human RBC to ID50 for epimastigotes of Trypanosoma cruzi Tulahuen 2.
A short description of data set [5]: Cytotoxicity in mouse J774 cells assessed as cell viability after 48 hrs by MTT assay. It is filed as cell-based. The following applies: read-out: ID50.
A short description of data set [6]: Selectivity index, ratio of ID50 for mouse J774 cells to ID50 for epimastigotes of Trypanosoma cruzi Tulahuen 2. Format: toxicity, cell-based. The settings on record: read-out: Selectivity Index.
In data set [7] the target is Cruzipain (Trypanosoma cruzi) (UniProt P25779). The experiment in a line: Inhibition of Trypanosoma cruzi Cruzipain using Z-Phe-Arg-AMC as substrate at 100 uM at pH 5.3 measured for 10 mins by spectrofluorimetric analysis relative to control.
Cruzipain (Trypanosoma cruzi), sequence (P25779 123-467 limits assumed): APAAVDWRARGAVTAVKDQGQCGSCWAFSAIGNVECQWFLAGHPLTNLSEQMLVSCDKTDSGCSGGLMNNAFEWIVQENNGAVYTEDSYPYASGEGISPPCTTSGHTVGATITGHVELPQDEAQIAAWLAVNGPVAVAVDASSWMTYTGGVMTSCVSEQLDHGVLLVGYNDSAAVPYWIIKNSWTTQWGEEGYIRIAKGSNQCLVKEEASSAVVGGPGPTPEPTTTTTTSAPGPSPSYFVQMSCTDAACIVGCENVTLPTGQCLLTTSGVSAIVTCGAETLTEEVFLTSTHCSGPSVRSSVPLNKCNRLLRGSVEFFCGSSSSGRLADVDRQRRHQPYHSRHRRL
Data set [8] has the same target. The experiment in a line: Inhibition of Trypanosoma cruzi Cruzipain using Z-Phe-Arg-AMC as substrate at 100 uM at pH 7.3 measured for 10 mins by spectrofluorimetric analysis relative to control in presence of Triton X-100.

For the molecule `C=CCNC(=S)N/N=C/c1ccc2c(c1)=[N+]([O-])C(C)(C)[N+]=2[O-]`, the IC50 in the data set on Trypanosoma cruzi amounted to 7.2 µM.
For the molecule `C=CCNC(=S)N/N=C/c1ccc(OCc2ccc3no[n+]([O-])c3c2)cc1`, the IC50 in the data set on Trypanosoma cruzi is above 25 µM. Moreover, the ID50 result in data set [1] was “ND(Insoluble)”; in [3] it was above 100 µM. The same molecule gave an inhibition in data set [2] of 38%.
As to `CC1(C)[N+]([O-])=c2ccc(COc3ccc(/C=N/NC(N)=O)cc3)cc2=[N+]1[O-]`, the IC50 in the data set on Trypanosoma cruzi was above 25 µM. For the same molecule, the HC50 at 24 h in [1] is above 200 µM. In [2], this molecule yielded an inhibition of 0%. In addition, in data set [3], the ID50 is above 100 µM.
Consider `C[C@@H]1[C@H](O)[C@@H](C)/C=C/C=C/C=C/C=C/C=C/C=C/C=C/[C@H](O[C@@H]2O[C@H](C)[C@@H](O)[C@H](N)[C@@H]2O)C[C@@H]2O[C@](O)(C[C@@H](O)C[C@@H](O)[C@H](O)CC[C@@H](O)C[C@@H](O)CC(=O)O[C@H]1C)C[C@H](O)[C@H]2C(=O)O` [AMPHOTERICIN B], for which the HC50 at 24 h in data set [1] is 1.5 µM. In addition, in [4], the Selectivity Index was 10.
For `O=Cc1ccccc1OCc1ccc2no[n+]([O-])c2c1`, the IC50 in the data set on Trypanosoma cruzi came out at 6.3 µM. Also, in data set [1], the HC50 at 24 h is above 100 µM. For the same molecule, in data set [5], the CC50 at 48 h stood at 78 µM. For the same molecule, in [4], the Selectivity Index was above 15.9. In addition, in [6], the selectivity ratio came to 12.4. The same molecule registered an inhibition in data set [2] of 0%. In data set [3], this molecule displayed an ID50 above 100 µM.
Consider `[O-][n+]1onc2ccc(COc3ccc(/C=N/NC(=S)Nc4ccccc4)cc3)cc21`, for which the IC50 with Trypanosoma cruzi amounted to 7 µM. Besides, the ID50 entry in data set [1] was “ND(Insoluble)”; in data set [3], 75 µM. In addition, the inhibition in [2] amounted to 95%.
On to `CC(=O)c1ccccc1OCc1ccc2c(c1)=[N+]([O-])C(C)(C)[N+]=2[O-]`, for which the IC50 in the data set on Trypanosoma cruzi was above 25 µM. The HC50 at 24 h in [1] is below 50 µM. Also, the inhibition in [2] was found to be 0%. The same molecule yielded an ID50 in data set [3] above 100 µM.
Regarding `[O-][n+]1onc2ccc(/C=N/NC(=S)Nc3ccccc3)cc21`, the IC50 in the data set on Trypanosoma cruzi turned out to be 8.3 µM. The same molecule displayed an ID50 in [3] of 78 µM.
Consider `CC1(C)[N+]([O-])=c2ccc(COc3ccccc3/C=N\NC(=S)Nc3ccccc3)cc2=[N+]1[O-]`, for which, in the data set with Trypanosoma cruzi, the IC50 amounted to 7.7 µM. Also, the HC50 at 24 h in data set [1] was found to be 66 µM. For the same molecule, in data set [5], the CC50 at 48 h was below 100 µM. The inhibition in data set [2] is 0%. Besides, in data set [3], the ID50 is above 100 µM.
Take `NC(=O)N/N=C/c1ccc(OCc2ccc3no[n+]([O-])c3c2)cc1`: the HC50 at 24 h in [1] was above 200 µM. In addition, the ID50 in data set [3] is above 100 µM.
In the case of `CC1(C)[N+]([O-])=c2ccc(COc3cccc(C=O)c3)cc2=[N+]1[O-]`, the IC50 in the data set on Trypanosoma cruzi was above 25 µM. For the same molecule, in data set [1], the HC50 at 24 h was below 50 µM. In data set [2], this molecule displayed an inhibition of 45%. Also, the ID50 in [3] was 100 µM.
Take `N=C(N)N/N=C/c1cccc(OCc2ccc3no[n+]([O-])c3c2)c1`: the IC50 with Trypanosoma cruzi was above 25 µM. In [1], the HC50 at 24 h is above 100 µM. The values for the inhibition in data set [2] and in data set [7] were 42% and 28%, respectively. The molecule also gave an ID50 in [3] of 100 µM.
Take `CC1(C)[N+]([O-])=c2ccc(COc3ccccc3/C=N\NC(N)=O)cc2=[N+]1[O-]`: the IC50 in the data set with Trypanosoma cruzi is 4.7 µM. Also, in data set [1], the HC50 at 24 h worked out at 50 µM. The same molecule came in with an inhibition in data set [2] of 0%. Besides, the ID50 in data set [3] is above 100 µM.
Taken in the same sequence, the figures for `CC1(C)[N+]([O-])=c2ccc(COc3ccccc3/C=N\NC(N)=S)cc2=[N+]1[O-]` were 14 µM, above 200 µM, 35% and above 100 µM.
As for `[O-][n+]1onc2ccc(/C=N/N=C/c3ccccc3O)cc21`, in the data set with Trypanosoma cruzi, the IC50 is above 25 µM. The molecule also yielded an ID50 in [3] of 68 µM.
Taken in the same sequence, the figures for `[O-][n+]1onc2ccc(/C=N/N=C/c3cc(Br)ccc3O)cc21` were 25 µM and 73 µM.
With `C/C(=N/NC(=N)N)c1ccccc1OCc1ccc2no[n+]([O-])c2c1`, the IC50 in the data set on Trypanosoma cruzi was determined as 16.6 µM. In addition, in data set [1], the HC50 at 24 h is above 200 µM. In addition, the inhibition in data set [2] was determined as 21%. In data set [3], the ID50 is above 100 µM.
Consider `CC1(C)[N+]([O-])=c2ccc(COc3ccc(/C=N/NC(N)=S)cc3)cc2=[N+]1[O-]`, for which the IC50 in the data set with Trypanosoma cruzi stood at 17 µM. The ID50 entry in data set [1] was “ND(Insoluble)”; in data set [3], above 100 µM. The inhibition in [2] was 13.7%.
`C=CCNC(=S)N/N=C/c1ccc(OCc2ccc3c(c2)=[N+]([O-])C(C)(C)[N+]=3[O-])cc1`: the IC50 in the data set on Trypanosoma cruzi turned out to be 23 µM. In addition, the HC50 at 24 h in [1] is above 100 µM. In data set [2], this molecule had an inhibition of 51%. The molecule also came in with an ID50 in data set [3] of 100 µM.
For `NC(=S)N/N=C/c1cccc(OCc2ccc3no[n+]([O-])c3c2)c1`, the IC50 in the data set with Trypanosoma cruzi is 15 µM. For the same molecule, the figures for the ID50 result in [1] and in data set [3] were “ND(Insoluble)” and 78 µM, respectively. Further, the inhibition in data set [2] was found to be 80%.
Take `NC(=S)N/N=C/c1ccc(OCc2ccc3no[n+]([O-])c3c2)cc1`: the HC50 at 24 h in data set [1] is above 200 µM. Also, the Selectivity Index in data set [4] was above 13.3. Further, the selectivity ratio in data set [6] was 26.7. Moreover, the ID50 in data set [3] is 43 µM.
As to `CC1CS(=O)(=O)CCN1/N=C/c1ccc([N+](=O)[O-])o1` (stereo not given) [NIFURTIMOX], the HC50 at 24 h in data set [1] was above 100 µM. Besides, the Selectivity Index in data set [4] is 13.
Consider `O=Cc1ccc(OCc2ccc3no[n+]([O-])c3c2)cc1`, for which, in [1], the HC50 at 24 h was below 50 µM. This molecule also had an inhibition in data set [2] of 6.3%. Further, the ID50 in data set [3] is above 100 µM.
Turning to `C=CCNC(=S)N/N=C/c1cccc(OCc2ccc3no[n+]([O-])c3c2)c1`, the IC50 with Trypanosoma cruzi is 13 µM. Further, the ID50 result was “ND(Insoluble)” in [1] and 55 µM in data set [3]. Moreover, the inhibition came out at 100% in data set [2], 79% in data set [7] and 90% in [8].
Turning to `C=CCNC(=S)N/N=C\c1ccccc1OCc1ccc2no[n+]([O-])c2c1`, the IC50 with Trypanosoma cruzi was determined as 23 µM. The HC50 at 24 h in data set [1] turned out to be 139 µM. Besides, the CC50 at 48 h in [5] was determined as 138 µM. The molecule further showed an inhibition in [2] of 11%. Further, the ID50 in data set [3] is above 100 µM.
For `CC(=O)c1ccccc1OCc1ccc2no[n+]([O-])c2c1`, the IC50 in the data set on Trypanosoma cruzi is 7 µM. In data set [1], the HC50 at 24 h is above 200 µM. Also, the inhibition in data set [2] worked out at 12%. Further, the ID50 in data set [3] was above 100 µM.
As for `N=C(N)N/N=C\c1ccccc1OCc1ccc2no[n+]([O-])c2c1`, the IC50 in the data set on Trypanosoma cruzi was above 25 µM. In addition, the HC50 at 24 h in [1] came out at 58 µM. The CC50 at 48 h in data set [5] is below 100 µM. The molecule also had an inhibition in data set [2] of 39%. For the same molecule, the ID50 in data set [3] was above 100 µM.
For `CC1(C)[N+]([O-])=c2ccc(COc3ccc(C=O)cc3)cc2=[N+]1[O-]` the same measures were 17 µM, 65 µM, below 100 µM, 35.5% and above 100 µM.
Consider `C=CCNC(=S)N/N=C\c1ccccc1OCc1ccc2c(c1)=[N+]([O-])C(C)(C)[N+]=2[O-]`, for which the IC50 in the data set on Trypanosoma cruzi was found to be 2.7 µM. For the same molecule, the figures for the ID50 result in data set [1] and in [3] were “ND(Insoluble)” and above 100 µM, respectively. The inhibition in data set [2] came out at 6.6%.
Regarding `NC(=S)N/N=C\c1ccccc1OCc1ccc2no[n+]([O-])c2c1`, in the data set on Trypanosoma cruzi, the IC50 is above 25 µM. Further, the HC50 at 24 h in [1] amounted to 189 µM. Besides, in data set [5], the CC50 at 48 h is below 100 µM. The molecule further displayed an inhibition in data set [2] of 49%. In [3], the ID50 was determined as 100 µM.
For `NC(=O)N/N=C\c1ccccc1OCc1ccc2no[n+]([O-])c2c1` the same measures were above 25 µM, above 100 µM, below 100 µM, 7% and above 100 µM.
Turning to `CC1(C)[N+]([O-])=c2ccc(COc3cccc(/C=N/NC(N)=S)c3)cc2=[N+]1[O-]`, the IC50 with Trypanosoma cruzi was determined as 24 µM. Also, in data set [1], the HC50 at 24 h was 141 µM. The same molecule gave an inhibition in [2] of 95%. The ID50 in data set [3] came to 64 µM.
Taken in the same sequence, the figures for `CC1(C)[N+]([O-])=c2ccc(COc3ccccc3/C=N\NC(=N)N)cc2=[N+]1[O-]` were above 25 µM, 114 µM, 2.5% and above 100 µM.
Regarding `N=C(N)N/N=C/c1ccc(OCc2ccc3no[n+]([O-])c3c2)cc1`, the HC50 at 24 h in data set [1] is above 200 µM. In [3], this molecule returned an ID50 of 32 µM.
Take `CC1(C)[N+]([O-])=c2ccc(COc3ccc(/C=N/NC(=S)Nc4ccccc4)cc3)cc2=[N+]1[O-]`: the IC50 in the data set on Trypanosoma cruzi was above 25 µM. The HC50 at 24 h in [1] was below 50 µM. For the same molecule, in data set [2], the inhibition was determined as 72%. In addition, in [3], the ID50 is 85 µM.
For `O=Cc1cccc(OCc2ccc3no[n+]([O-])c3c2)c1` the same measures were 28 µM, 50 µM, 43% and 100 µM.
`[O-][n+]1onc2ccc(COc3ccccc3/C=N\NC(=S)Nc3ccccc3)cc21`: in the data set with Trypanosoma cruzi, the IC50 was found to be 3.6 µM. In addition, in data set [1], the HC50 at 24 h is above 200 µM. Moreover, the CC50 at 48 h in data set [5] was above 400 µM. Further, in [4], the Selectivity Index is above 55.6. Besides, in [6], the selectivity ratio was above 111. In [2], this molecule registered an inhibition of 0%. The ID50 in [3] was above 100 µM.
